Tests used:
[1] = tested on: Human gastric cancer cells (MKN-45); assay: Inhibitory activity against the proliferation of human gastric cancer cells (MKN-45); format: cell-based; conditions: 72 h, MKN-45, 1% FBS RPMI1640, 3 days, Cell Counting Kit-8
In short: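 MKN-45 cells seeded overnight in RPMI1640 with 1% FBS, then exposed to compound for 3 days at 37° C, 5% CO2. Viability read with CCK-8 after about 1.5 hrs, absorbance at 450 nm (reference 660 nm).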

HGFR = molecular target: T1, HGFR (Homo sapiens, UniProt P08581); assay: Inhibitory activity against the HGFR autophosphorylation using ELISA (MKN-45 cells); format: cell-based; conditions: 1 hr with test substance
T1 construct: endogenous in cells; host or cells: MKN-45 human gastric cancer cells
In short: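 MKN-45 gastric cancer cells, plated overnight in 1% FBS RPMI1640, treated with compound 1 h at 37° C and lysed. Lysate captured on anti-phosphotyrosine (PY20) plates, probed with anti-HGFR then HRP anti-rabbit IgG; TMB absorbance at 450 nm. Activity expressed as % of untreated extract (100%) versus lysis buffer blank (0%).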

T1 sequence (P08581 25-1390): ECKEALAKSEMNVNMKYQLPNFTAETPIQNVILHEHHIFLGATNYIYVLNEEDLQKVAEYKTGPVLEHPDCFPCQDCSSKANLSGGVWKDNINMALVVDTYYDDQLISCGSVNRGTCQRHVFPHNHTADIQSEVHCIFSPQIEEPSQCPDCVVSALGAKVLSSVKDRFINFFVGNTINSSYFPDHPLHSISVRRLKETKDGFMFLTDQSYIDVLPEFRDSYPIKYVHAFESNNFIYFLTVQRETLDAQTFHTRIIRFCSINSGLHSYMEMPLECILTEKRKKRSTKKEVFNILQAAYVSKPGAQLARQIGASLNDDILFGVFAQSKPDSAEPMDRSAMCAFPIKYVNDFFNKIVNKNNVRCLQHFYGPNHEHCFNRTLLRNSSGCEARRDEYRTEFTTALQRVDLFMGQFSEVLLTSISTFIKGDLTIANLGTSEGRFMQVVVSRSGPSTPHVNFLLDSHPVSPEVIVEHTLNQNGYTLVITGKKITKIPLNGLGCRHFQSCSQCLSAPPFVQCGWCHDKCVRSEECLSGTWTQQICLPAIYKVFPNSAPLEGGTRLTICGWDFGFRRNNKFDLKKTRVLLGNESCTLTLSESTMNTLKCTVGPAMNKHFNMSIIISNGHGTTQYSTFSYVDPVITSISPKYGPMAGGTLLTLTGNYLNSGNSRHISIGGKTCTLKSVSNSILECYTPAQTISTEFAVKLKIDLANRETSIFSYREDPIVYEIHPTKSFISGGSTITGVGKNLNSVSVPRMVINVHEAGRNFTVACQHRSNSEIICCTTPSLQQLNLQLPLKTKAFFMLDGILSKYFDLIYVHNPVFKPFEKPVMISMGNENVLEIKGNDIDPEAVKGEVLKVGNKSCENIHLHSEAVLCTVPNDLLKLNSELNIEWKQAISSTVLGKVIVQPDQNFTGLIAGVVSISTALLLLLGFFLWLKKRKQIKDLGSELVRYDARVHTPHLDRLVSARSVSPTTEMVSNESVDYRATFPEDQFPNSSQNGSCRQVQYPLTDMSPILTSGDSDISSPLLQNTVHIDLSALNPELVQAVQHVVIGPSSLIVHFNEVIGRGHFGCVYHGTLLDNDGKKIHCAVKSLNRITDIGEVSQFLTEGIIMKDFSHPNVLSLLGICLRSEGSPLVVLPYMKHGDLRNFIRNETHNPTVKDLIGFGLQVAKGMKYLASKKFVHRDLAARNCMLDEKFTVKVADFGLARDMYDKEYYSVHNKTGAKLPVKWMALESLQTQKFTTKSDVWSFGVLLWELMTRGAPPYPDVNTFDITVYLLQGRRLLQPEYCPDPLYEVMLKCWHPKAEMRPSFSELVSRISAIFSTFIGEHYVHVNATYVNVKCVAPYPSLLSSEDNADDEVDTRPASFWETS

IC50 [1]	IC50 (HGFR)	SMILES
4.9 nM	13 nM	CN1CCN(C2CCN(C(=O)Nc3cc(Oc4cc(F)c(NC(=O)C5(C(=O)Nc6ccc(F)cc6)CC5)cc4F)ccn3)CC2)CC1 [Example 92, N-(2,5-Difluoro-4-{[2-({[4-(4-methylpiperazin-1-yl)piperidin-1-yl]carbonyl}amino)pyridin-4-yl]oxy}phenyl)-N′-(4-fluorophenyl)cyclopropane-1,1-dicarboxamide]
5.2 nM	7 nM	CN(C)CC1CN(C(=O)Nc2cc(Oc3cc(F)c(NC(=O)C4(C(=O)Nc5ccc(F)cc5)CC4)cc3F)ccn2)C1 [Example 93, N-[2,5-Difluoro-4-({2-[({3-[(dimethylamino)methyl]azetidin-1-yl]carbonyl)amino]pyridin-4-yl}oxy)phenyl]-N′-(4-fluorophenyl)cyclopropane-1,1-dicarboxamide]
5.4 nM	13 nM	O=C(Nc1cc(Oc2cc(F)c(NC(=O)C3(C(=O)Nc4ccc(F)cc4)CC3)cc2F)ccn1)N1CC(CN2CCC2)C1 [Example 95, N-{4-[(2-{[3-(Azetidin-1-ylmethyl)azetidin-1-ylcarbonyl]amino}pyridin-4-yl)oxy]-2,5-difluorophenyl}-N′-(4-fluorophenyl)cyclopropane-1,1-dicarboxamide]
3.8 nM	4.2 nM	O=C(Nc1cc(Oc2cc(F)c(NC(=O)C3(C(=O)Nc4ccc(F)cc4)CC3)cc2F)ccn1)N1CC(CO)C1 [Example 96, N-(2,5-Difluoro-4-{[2-({[3-(hydroxymethyl)azetidin-1-yl]carbonyl}amino)pyridin-4-yl]oxy}phenyl)-N′-(4-fluorophenyl)cyclopropane-1,1-dicarboxamide]
38 nM	14 nM	O=C(Nc1cc(Oc2cc(F)c(NC(=O)C3(C(=O)Nc4ccc(F)cc4)CC3)cc2F)ncn1)N1CC(O)C1 [Example 97, N-{2,5-Difluoro-4-[(4-{[(3-hydroxyazetidin-1-yl)carbonyl]amino}pyrimidin-6-yl)oxy]phenyl}-N′-(4-fluorophenyl)cyclopropane-1,1-dicarboxamide]
23 nM	17 nM	CN(C)CC1CN(C(=O)Nc2cc(Oc3cc(F)c(NC(=O)C4(C(=O)Nc5ccc(F)cc5)CC4)cc3F)ncn2)C1 [Example 98, N-[4-({4-[({3-[(Dimethylamino)methyl]azetidin-1-yl}carbonyl)amino]pyrimidin-6-yl}oxy)-2,5-difluorophenyl]-N′-(4-fluorophenyl)cyclopropane-1,1-dicarboxamide]

The remaining lines, values behind:

SMILES	IC50 [1]	IC50 (HGFR)
CN(C)CC1CCN(C(=O)Nc2cc(Oc3ccc(NC(=O)C4(C(=O)Nc5ccc(F)cc5)CC4)cc3F)ccn2)CC1 [Example 5, N-[4-({2-[({4-[(Dimethylamino)methyl]piperidin-1-yl}carbonyl)amino]pyridin-4-yl}oxy)-3-fluorophenyl]-N′-(4-fluorophenyl)cyclopropane-1,1-dicarboxamide]	19 nM	22 nM
O=C(Nc1cc(Oc2ccc(NC(=O)C3(C(=O)Nc4ccc(F)cc4)CC3)cc2F)ccn1)N1CC(CO)C1 [Example 81, N-(3-Fluoro-4-{[2-({[3-(hydroxymethyl)azetidin-1-yl]carbonyl}amino)pyridin-4-yl]oxy}phenyl)-N′-(4-fluorophenyl)cyclopropane-1,1-dicarboxamide]	17 nM	7 nM
O=C(Nc1cc(Oc2ccc(NC(=O)C3(C(=O)Nc4ccc(F)cc4)CC3)c(F)c2)ccn1)N1CCC(O)CC1 [Example 82, N-[2-Fluoro-4-[(2-{[(4-hydroxypiperidin-1-yl)carbonyl]amino}pyridin-4-yl)oxy]phenyl}-N′-(4-fluorophenyl)cyclopropane-1,1-dicarboxamide]	21 nM	22 nM
O=C(Nc1cc(Oc2ccc(NC(=O)C3(C(=O)Nc4ccc(F)cc4)CC3)c(F)c2)ccn1)N1CCC(CO)CC1 [Example 83, N-(2-Fluoro-4-{[2-({[4-(hydroxymethyl)piperidin-1-yl]carbonyl}amino)pyridin-4-yl]oxy}phenyl)-N′-(4-fluorophenyl)cyclopropane-1,1-dicarboxamide]	16 nM	18 nM
O=C(Nc1cc(Oc2ccc(NC(=O)C3(C(=O)Nc4ccc(F)cc4)CC3)cc2F)ccn1)N1CCC(O)CC1 [Example 84, N-[3-Fluoro-4-[(2-{[(4-hydroxypiperidin-1-yl)carbonyl]amino}pyridin-4-yl)oxy]phenyl}-N′-(4-fluorophenyl)cyclopropane-1,1-dicarboxamide]	19 nM	17 nM
O=C(Nc1cc(Oc2ccc(NC(=O)C3(C(=O)Nc4ccc(F)cc4)CC3)cc2F)ccn1)N1CCC(CO)CC1 [Example 85, N-(3-Fluoro-4-{[2-({[-4-(hydroxymethyl)piperidin-1-yl]carbonyl}amino)pyridin-4-yl]oxy}phenyl)-N′-(4-fluorophenyl)cyclopropane-1,1-dicarboxamide]	15 nM	14 nM
O=C(Nc1cc(Oc2ccc(NC(=O)C3(C(=O)Nc4ccc(F)cc4)CC3)cc2F)ccn1)N1CC[C@@H](O)C1 [Example 86, N-(3-Fluoro-4-{[2-({[(3R)-3-hydroxypyrrolidin-1-yl]carbonyl}amino)pyridin-4-yl]oxy}phenyl)-N′-(4-fluorophenyl)cyclopropane-1,1-dicarboxamide]	15 nM	11 nM
O=C(Nc1cc(Oc2ccc(NC(=O)C3(C(=O)Nc4ccc(F)cc4)CC3)c(F)c2)ccn1)N1CC[C@@H](O)C1 [Example 87, N-(2-Fluoro-4-{[2-({[(3R)-3-hydroxypyrrolidin-1-yl]carbonyl}amino)pyridin-4-yl]oxy}phenyl)-N′-(4-fluorophenyl)cyclopropane-1,1-dicarboxamide]	14 nM	12 nM
O=C(Nc1cc(Oc2ccc(NC(=O)C3(C(=O)Nc4ccc(F)cc4)CC3)cc2F)ccn1)N1CC[C@H](O)C1 [Example 88, N-(3-Fluoro-4-{[2-({[(3S)-3-hydroxypyrrolidin-1-yl]carbonyl}amino)pyridin-4-yl]oxy}phenyl)-N′-(4-fluorophenyl)cyclopropane-1,1-dicarboxamide]	18 nM	20 nM
O=C(Nc1cc(Oc2ccc(NC(=O)C3(C(=O)Nc4ccc(F)cc4)CC3)c(F)c2)ccn1)N1CC[C@H](O)C1 [Example 89, N-(2-Fluoro-4-{[2-({[(3S)-3-hydroxypyrrolidin-1-yl]carbonyl}amino)pyridin-4-yl]oxy}phenyl)-N′-(4-fluorophenyl)cyclopropane-1,1-dicarboxamide]	18 nM	17 nM
O=C(Nc1cc(Oc2cc(F)c(NC(=O)C3(C(=O)Nc4ccc(F)cc4)CC3)cc2F)ccn1)N1CCC1 [Example 90, N-[4-({2-[(Azetidin-1-ylcarbonyl)amino]pyridin-4-yl}oxy)-2,5-difluorophenyl]-N′-(4-fluorophenyl)cyclopropane-1,1-dicarboxamide]	5 nM	11 nM

— patent US7855290B2, “Pyridine derivatives and pyrimidine derivatives (3)” (Eisai R&D Management Co., Ltd., priority 2005, dated 2010)
